Where two headings read alike, the source gives them in different places.
Columns and labels:
RS4;11 cells = assay: Cell proliferation assay (MTS), RS4;11 cells, 72 h; type: cell-based
Summary of the method: (§1)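 Treatment lasts 72 h for RS4;11 and 120 h for DOHH2 cells seeded at 5000 per well in serum-containing RPMI-1640. A 2 h MTS step, halted with 10% SDS, precedes dual-wavelength absorbance reading and IC50 fitting.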

DOHH2 cells = assay: Cell proliferation assay (MTS), DOHH2 cells, 120 h; type: cell-based
Summary of the method: as §1

| SMILES | IC50 (RS4;11 cells) | IC50 (DOHH2 cells) | IC50 (RS4;11 cells; Homo sapiens, RS4-11, 72 h) | IC50 (DOHH2 cells; Homo sapiens, DOHH-2, 120 h) |
| --- | --- | --- | --- | --- |
| CC1(C)CCC(CN2CCN(c3ccc(C(=O)NS(=O)(=O)c4cc5c(c([N+](=O)[O-])c4)N[C@@H](CC#N)CO5)c(Oc4cnc5[nH]ccc5c4)c3)CC2)=C(c2ccc(Cl)cc2)C1 [Example 2-115, (S)-2-((1H-pyrrolo[2,3-b]pyridin-5-yl)oxy)-4-(4-((4′-chloro-5,5-dimethyl-3,4,5,6-tetra-hydro-[1,1′-biphenyl]-2-yl)methyl)piperazin-1-yl)-N-((3-(cyanomethyl)-5-nitro-3,4-di-hydro-2H-benzo[b][1,4]oxazin-7-yl)sulfonyl-yl)benzamide] | 6 nM | 38 nM |  |  |
| COC[C@H]1COc2cc(S(=O)(=O)NC(=O)c3ccc(N4CCN(CC5=C(c6ccc(Cl)cc6)CC(C)(C)CC5)CC4)cc3Oc3cnc4[nH]ccc4c3)cc([N+](=O)[O-])c2N1 [Example 2-116, (S)-2-((1H-pyrrolo[2,3-b]pyridin-5-yl)oxy)-4-(4-((4′-chloro-5,5-dimethyl-3,4,5,6-tetra-hydro-[1,1′-biphenyl]-2-yl)methyl)piperazin-1-yl)-N-((3-(methoxymethyl)-5-nitro-3,4-dihydro-2H-benzo[b][1,4]oxazin-7-yl)sulfonyl)benzamide] |  |  | 16 nM | 83 nM |
| CC1(C)CCC(CN2CCN(c3ccc(C(=O)NS(=O)(=O)c4cc5c(c([N+](=O)[O-])c4)N[C@@H](COC(=O)N4CCOCC4)CO5)c(Oc4cnc5[nH]ccc5c4)c3)CC2)=C(c2ccc(Cl)cc2)C1 [Example 2-117, (R)-(7-(N-(2-((1H-pyrrolo[2,3-b]pyridin-5-yl)oxy)-4-(4-((4′-chloro-5,5-dimethyl-3,4,5,6-tetrahydro-[1,1′-biphenyl]-2-yl)methyl)piperazin-1-yl)benzoyl)sulfamoyl)-5-nitro-3,4-dihydro-2H-benzo[b][1,4]oxazin-3-yl)methyl morpholine-4-carboxylate] |  |  | 44 nM | 41 nM |
| COCC[C@H]1COc2cc(S(=O)(=O)NC(=O)c3ccc(N4CCN(CC5=C(c6ccc(Cl)cc6)CC(C)(C)CC5)CC4)cc3Oc3cnc4[nH]ccc4c3)cc([N+](=O)[O-])c2N1 [Example 2-118, (S)-2-((1H-pyrrolo[2,3-b]pyridin-5-yl)oxy)-4-(4-((4′-chloro-5,5-dimethyl-3,4,5,6-tetra-hydro-[1,1′-biphenyl]-2-yl)methyl)piperazin-1-yl)-N-((3-(2-methoxyethyl)-5-nitro-3,4-dihydro-2H-benzo[b][1,4]oxazin-7-yl)sulfonyl)benzamide] |  |  | 11 nM | 649 nM |
| CC1(C)CCC(CN2CCN(c3ccc(C(=O)NS(=O)(=O)c4cc5c(c([N+](=O)[O-])c4)N[C@@H](CN4CCS(=O)(=O)CC4)CO5)c(Oc4cnc5[nH]ccc5c4)c3)CC2)=C(c2ccc(Cl)cc2)C1 [Example 2-121, (S)-2-((1H-pyrrolo[2,3-b]pyridin-5-yl)oxy)-4-(4-((4′-chloro-5,5-dimethyl-3,4,5,6-tetra-hydro-[1,1′-biphenyl]-2-yl)methyl)piperazin-1-yl)-N-((3-((1,1-dioxidothiomorpholino)methyl)-5-nitro-3,4-dihydro-2H-benzo[b][1,4]oxazin-7-yl)sulfonyl)benzamide] |  |  | 36 nM | 48 nM |
| CC1(C)CCC(CN2CCN(c3ccc(C(=O)NS(=O)(=O)c4cc5c(c([N+](=O)[O-])c4)N[C@@H](CN4CCC(N=S(C)(C)=O)CC4)CO5)c(Oc4cnc5[nH]ccc5c4)c3)CC2)=C(c2ccc(Cl)cc2)C1 [Example 2-125, (S)-2-((1H-pyrrolo[2,3-b]pyridin-5-yl)oxy)-4-(4-((4′-chloro-5,5-dimethyl-3,4,5,6-tetra-hydro-[1,1′-biphenyl]-2-yl)methyl)piperazin-1-yl)-N-((3-((4-((dimethyl(oxo)-λ^6-sulfanyl-idene)amino)piperidin-1-yl)methyl)-5-nitro-3,4-dihydro-2H-benzo[b][1,4]oxa-zin-7-yl)sulfonyl)benzamide] |  |  | 19 nM | 43 nM |
| CC1(C)CCC(CN2CCN(c3ccc(C(=O)NS(=O)(=O)c4cc5c(c([N+](=O)[O-])c4)N[C@H](CCN4CCS(=O)(=O)CC4)CO5)c(Oc4cnc5[nH]ccc5c4)c3)CC2)=C(c2ccc(Cl)cc2)C1 [Example 2-126, (R)-2-((1H-pyrrolo[2,3-b]pyridin-5-yl)oxy)-4-(4-((4′-chloro-5,5-dimethyl-3,4,5,6-tetra-hydro-[1,1′-biphenyl]-2-yl)methyl)piperazin-1-yl)-N-((3-(2-(1,1-dioxidothiomorpholino)ethyl)-5-nitro-3,4-dihydro-2H-benzo[b] [1,4]oxazin-7-yl)sulfonyl)benzamide] |  |  | 5 nM | 11 nM |
| CN=S1(=O)CCN(CC[C@@H]2COc3cc(S(=O)(=O)NC(=O)c4ccc(N5CCN(CC6=C(c7ccc(Cl)cc7)CC(C)(C)CC6)CC5)cc4Oc4cnc5[nH]ccc5c4)cc([N+](=O)[O-])c3N2)CC1 [Example 2-127] |  |  | 23 nM | 42 nM |
| CCN=S1(=O)CCN(CC[C@@H]2COc3cc(S(=O)(=O)NC(=O)c4ccc(N5CCN(CC6=C(c7ccc(Cl)cc7)CC(C)(C)CC6)CC5)cc4Oc4cnc5[nH]ccc5c4)cc([N+](=O)[O-])c3N2)CC1 [Example 2-128, (R)-2-((1H-pyrrolo[2,3-b]pyridin-5-yl)oxy)-4-(4-((4′-chloro-5,5-dimethyl-3,4,5,6-tetra-hydro-[1,1′-biphenyl]-2-yl)methyl)piperazin-1-yl)-N-((3-(2-(1-(ethylimino)-1-oxido-1λ^6-thiomorpholino)ethyl)-5-nitro-3,4-di-hydro-2H-benzo[b][1,4]oxazin-7-yl)sulfonyl) benzamide] |  |  | 20 nM | 28 nM |
| CC1(C)CCC(CN2CCN(c3ccc(C(=O)NS(=O)(=O)c4cc5c(c([N+](=O)[O-])c4)N[C@H](CCN4CCS(=O)(=NC6CC6)CC4)CO5)c(Oc4cnc5[nH]ccc5c4)c3)CC2)=C(c2ccc(Cl)cc2)C1 [Example 2-129, (R)-2-((1H-pyrrolo[2,3-b]pyridin-5-yl)oxy)-4-(4-((4′-chloro-5,5-dimethyl-3,4,5,6-tetra-hydro-[1,1′-biphenyl]-2-yl)methyl)piperazin-1-yl)-N-((3-(2-(1-(cylcopropylimino)-1-oxido-1λ^6-thiomorphlino)ethyl)-5-nitro-3,4-dihydro-2H-benzo[b][1,4]oxazin-7-yl)sulfanoyl)benzamide] |  |  | 9 nM | 16 nM |
| COC(=O)N=S1(=O)CCN(CC[C@@H]2COc3cc(S(=O)(=O)NC(=O)c4ccc(N5CCN(CC6=C(c7ccc(Cl)cc7)CC(C)(C)CC6)CC5)cc4Oc4cnc5[nH]ccc5c4)cc([N+](=O)[O-])c3N2)CC1 [Example 2-130, methyl (R)-(4-(2-(7-(N-(2-((1H-pyrrolo[2,3-b]pyri-din-5-yl)oxy)-4-(4-((4′-chloro-5,5-dimethyl-3,4,5,6-tetrahydro-[1,1′-biphenyl]-2-yl)meth-yl)piperazin-1-yl)benzoyl)sulfamoyl)-5-nitro-3,4-dihydro-2H-benzo[b][1,4]oxazin-3-yl)ethyl)-1-oxido-1λ^6-thiomorpholin-1-ylidene)carbamate] |  |  | 14 nM | 26 nM |
| CC1(C)CCC(CN2CCN(c3ccc(C(=O)NS(=O)(=O)c4cc5c(c([N+](=O)[O-])c4)N[C@H](CCN4CCC(N=S(C)(C)=O)CC4)CO5)c(Oc4cnc5[nH]ccc5c4)c3)CC2)=C(c2ccc(Cl)cc2)C1 [Example 2-131, (R)-2-((1H-pyrrolo[2,3-b]pyridin-5-yl)oxy)-4-(4-((4′-chloro-5,5-dimethyl-3,4,5,6-tetra-hydro-[1,1′-biphenyl]-2-yl)methyl)piperazin-1-yl)-N-((3-(2-(4-((dimethyl(oxo)-λ^6-sulfa-nylidene)amino)piperidin-1-yl)ethyl)-5-nitro-3,4-dihydro-2H-benzo[b][1,4]oxazin-7-yl)sulfonyl)benzamide] |  |  | 9 nM | 39 nM |
| CC1(C)CCC(CN2CCN(c3ccc(C(=O)NS(=O)(=O)c4cc5c(c([N+](=O)[O-])c4)N[C@@H](Cc4ccccc4)CO5)c(Oc4cnc5[nH]ccc5c4)c3)CC2)=C(c2ccc(Cl)cc2)C1 [Example 2-132, (S)-2-((1H-pyrrolo[2,3-b]pyridin-5-yl)oxy)-N-((3-benzyl-5-nitro-3,4-dihydro-2H-benzo [b][1,4]oxazin-7-yl)sulfonyl)-4-(4-((4′-chloro-5,5-dimethyl-3,4,5,6-tetrahydro-[1,1′-biphenyl]-2-yl)meth-yl)piperazin1-yl)benzamide] |  |  | 2 nM | 28 nM |
| CC1(C)CCC(CN2CCN(c3ccc(C(=O)NS(=O)(=O)c4cc5c(c([N+](=O)[O-])c4)N[C@@H](Cc4ccccn4)CO5)c(Oc4cnc5[nH]ccc5c4)c3)CC2)=C(c2ccc(Cl)cc2)C1 [Example 2-133, (S)-2-((1H-pyrrolo[2,3-b]pyridin-5-yl)oxy)-4-(4-((4′-chloro-5,5-dimethyl-3,4,5,6-tetra-hydro-[1,1′-biphenyl]-2-yl)methyl)piperazin-1-yl)-N-((5-nitro-3-(pyridin-2-ylmethyl)-3,4-dihydro-2H-benzo[b][1,4]oxazin-7-yl)sulfonyl)benzamide] |  |  | 1 nM | 8 nM |
| COC(=O)NC[C@@H]1COc2cc(S(=O)(=O)NC(=O)c3ccc(N4CCN(CC5=C(c6ccc(Cl)cc6)CC(C)(C)CC5)CC4)cc3Oc3cnc4[nH]ccc4c3)cc([N+](=O)[O-])c2N1 [Example 2-134, methyl (R)-((7-(N-(2-((1H-pyrrolo[2,3-b]pyridin-5-yl)oxy)-4-(4-((4′-chloro-5,5-dimethyl-3,4,5,6-tetrahydro-[1,1′-biphenyl]-2-yl)methyl)piperazin-1-yl)benzoyl)sulfamoyl)-5-nitro-3,4-dihydro-2H-benzo[b][1,4]oxazin-3-yl)methyl)carbamate] |  |  | 2 nM | 39 nM |

From patent publication US11091478B2 (Fochon Pharmaceuticals, Ltd., priority 2017, dated 2021)
